This is an account of results in ChEMBL document CHEMBL4376865, “Discovery and Characterization of 1H-1,2,3-Triazole Derivatives as Novel Prostanoid EP4 Receptor Antagonists for Cancer Immunotherapy” (J Med Chem, 2020).

Data set [1] has as its target Prostaglandin E2 receptor EP4 subtype (Mus musculus, UniProt P32240). The experiment in a line: Antagonist activity at mouse EP4 expressed in CHO cells coexpressing G16-alpha assessed as intracellular calcium flux preincubated for 15 mins followed by addition of PGE2 by calcium flux assay. The format is functional, cell-based. A general note: Calcium flux is commonly read through the fluorescence of an indicator in the cells.

A further data set deals with CT26. The experiment in a line: Antitumor activity against mouse CT26 cells xenografted in BALB/c mouse assessed as tumor growth inhibition at 150 mg/kg, po administerd daily and measured after two weeks. The conditions noted are these: 336 h, read-out: TGI.
For another data set, the target named is CYP2C9 (Homo sapiens, UniProt P11712). Kind of data set: Inhibition of CYP2C9 in human liver microsomes at 20 uM using tolbutamide as substrate incubated for 60 mins by HPLC analysis relative to control. It counts as ADME. The conditions noted are these: probe tolbutamide. Background: Liver microsomes are vesicles of endoplasmic reticulum, rich in cytochrome P450 enzymes.
Chain of CYP2C9 (P11712 whole entry): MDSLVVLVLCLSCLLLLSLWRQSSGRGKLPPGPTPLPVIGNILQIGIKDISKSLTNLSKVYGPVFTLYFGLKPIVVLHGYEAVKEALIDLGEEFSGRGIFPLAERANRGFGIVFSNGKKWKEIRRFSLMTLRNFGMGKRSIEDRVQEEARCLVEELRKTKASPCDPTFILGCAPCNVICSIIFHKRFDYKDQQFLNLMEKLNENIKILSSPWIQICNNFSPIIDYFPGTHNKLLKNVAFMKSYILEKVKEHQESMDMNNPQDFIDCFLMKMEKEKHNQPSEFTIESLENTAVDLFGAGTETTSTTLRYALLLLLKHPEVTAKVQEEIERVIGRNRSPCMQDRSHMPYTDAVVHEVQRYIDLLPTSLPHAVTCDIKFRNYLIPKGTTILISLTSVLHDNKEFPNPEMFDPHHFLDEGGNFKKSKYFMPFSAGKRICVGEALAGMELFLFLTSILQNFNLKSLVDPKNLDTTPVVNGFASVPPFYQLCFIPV

Another data set concerns the target CYP2E1 (Homo sapiens, UniProt P05181). The experiment in a line: Inhibition of CYP2E1 in human liver microsomes at 20 uM using chlorzoxazone as substrate incubated for 60 mins by HPLC analysis relative to control. The format is ADME. The conditions noted are these: probe chlorzoxazone.
In the next data set the target is T1, CYP1A2 (Homo sapiens, UniProt P05177).
T1 sequence (P05177 whole entry): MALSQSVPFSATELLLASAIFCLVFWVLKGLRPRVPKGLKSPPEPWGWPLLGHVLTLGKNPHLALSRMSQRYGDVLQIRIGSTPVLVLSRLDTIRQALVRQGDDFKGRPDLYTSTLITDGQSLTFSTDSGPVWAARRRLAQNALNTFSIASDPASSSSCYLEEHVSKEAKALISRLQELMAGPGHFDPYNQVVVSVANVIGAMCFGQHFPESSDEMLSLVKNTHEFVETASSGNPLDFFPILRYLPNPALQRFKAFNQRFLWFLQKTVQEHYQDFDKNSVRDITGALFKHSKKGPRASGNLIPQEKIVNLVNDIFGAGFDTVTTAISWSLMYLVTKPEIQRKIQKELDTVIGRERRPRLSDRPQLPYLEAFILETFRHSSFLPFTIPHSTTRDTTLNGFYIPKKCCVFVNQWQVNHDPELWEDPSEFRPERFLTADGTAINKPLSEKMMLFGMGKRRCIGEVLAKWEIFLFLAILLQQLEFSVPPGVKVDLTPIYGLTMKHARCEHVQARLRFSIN
Kind of data set: Inhibition of CYP1A2 in human liver microsomes at 20 uM using phenacetin as substrate incubated for 30 mins by HPLC analysis relative to control. The format is ADME. The conditions noted are these: probe phenacetin.

A further data set deals with T2, CYP2B6 (Homo sapiens, UniProt P20813).
T2 sequence (P20813 whole entry): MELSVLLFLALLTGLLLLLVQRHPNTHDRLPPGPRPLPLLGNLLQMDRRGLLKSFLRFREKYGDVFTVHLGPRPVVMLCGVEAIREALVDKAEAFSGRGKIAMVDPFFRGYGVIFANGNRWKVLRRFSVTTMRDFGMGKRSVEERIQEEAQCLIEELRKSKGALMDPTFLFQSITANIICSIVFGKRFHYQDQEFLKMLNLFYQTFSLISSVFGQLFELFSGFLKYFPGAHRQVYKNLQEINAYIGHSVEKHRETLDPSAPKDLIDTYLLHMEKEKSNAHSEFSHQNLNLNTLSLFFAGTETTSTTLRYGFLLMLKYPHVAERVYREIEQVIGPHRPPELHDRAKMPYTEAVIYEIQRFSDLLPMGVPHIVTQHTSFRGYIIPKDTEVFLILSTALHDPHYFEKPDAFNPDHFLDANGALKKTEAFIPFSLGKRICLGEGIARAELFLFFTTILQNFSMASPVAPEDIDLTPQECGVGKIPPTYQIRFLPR
Kind of data set: Inhibition of CYP2B6 in human liver microsomes at 20 uM incubated for 60 mins by HPLC analysis relative to control. The format is ADME.

The target of the next data set is Cytochrome P450 3A4 (Homo sapiens, UniProt P08684). The experiment in a line: Inhibition of CYP3A4 in human liver microsomes at 20 uM using testosterone as substrate incubated for 60 mins by HPLC analysis. It counts as ADME. The conditions noted are these: 1 h.
Chain of Cytochrome P450 3A4 (P08684 whole entry): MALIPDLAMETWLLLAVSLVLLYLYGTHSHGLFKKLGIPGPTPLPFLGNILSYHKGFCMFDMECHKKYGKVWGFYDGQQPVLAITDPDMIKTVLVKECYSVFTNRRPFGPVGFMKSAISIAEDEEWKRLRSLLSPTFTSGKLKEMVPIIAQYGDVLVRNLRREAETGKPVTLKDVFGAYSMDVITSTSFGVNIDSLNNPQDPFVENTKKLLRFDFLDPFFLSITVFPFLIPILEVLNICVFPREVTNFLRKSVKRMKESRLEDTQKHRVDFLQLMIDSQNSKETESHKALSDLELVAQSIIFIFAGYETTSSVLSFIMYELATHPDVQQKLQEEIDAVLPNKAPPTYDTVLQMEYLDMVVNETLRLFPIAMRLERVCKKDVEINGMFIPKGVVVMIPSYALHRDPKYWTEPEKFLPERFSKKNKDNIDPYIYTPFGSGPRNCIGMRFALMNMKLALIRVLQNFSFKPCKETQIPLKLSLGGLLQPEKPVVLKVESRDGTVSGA
A further data set deals with CYP2D6 (Homo sapiens, UniProt P10635). Kind of data set: Inhibition of CYP2D6 in human liver microsomes at 20 uM using dextromethorphan as substrate incubated for 60 mins by HPLC analysis relative to control. It counts as ADME. The conditions noted are these: probe dextromethorphan.
Chain of CYP2D6 (P10635 whole entry): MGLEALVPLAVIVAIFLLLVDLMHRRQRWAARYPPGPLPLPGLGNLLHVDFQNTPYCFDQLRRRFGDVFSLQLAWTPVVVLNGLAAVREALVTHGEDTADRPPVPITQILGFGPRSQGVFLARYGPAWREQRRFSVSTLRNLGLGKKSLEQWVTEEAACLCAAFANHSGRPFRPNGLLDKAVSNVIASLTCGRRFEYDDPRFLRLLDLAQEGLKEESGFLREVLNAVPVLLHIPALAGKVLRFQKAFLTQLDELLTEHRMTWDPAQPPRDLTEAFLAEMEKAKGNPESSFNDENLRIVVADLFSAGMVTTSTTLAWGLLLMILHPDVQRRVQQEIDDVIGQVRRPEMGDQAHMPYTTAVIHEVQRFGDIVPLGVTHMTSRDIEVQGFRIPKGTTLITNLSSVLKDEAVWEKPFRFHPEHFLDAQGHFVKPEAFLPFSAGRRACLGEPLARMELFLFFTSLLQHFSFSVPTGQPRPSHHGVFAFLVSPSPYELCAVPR
Data set [2] in a line: in vitro. The conditions noted are these: CD1, mouse, liver microsomes.
Data set [3] is described as follows: in vitro. The conditions noted are these: CD1, mouse, liver microsomes. This is another data set of the same source.
A short description of data set [4]: in vitro. The conditions noted are these: human, liver microsomes.
Data set [5] in a line: in vitro. The conditions noted are these: human, liver microsomes. This is another data set of the same source.
Data set [6] can be described thus: in vivo. The conditions noted are these: BALB/c, mouse, iv, 1 mg/kg.
Data set [7] can be described thus: in vivo. The conditions noted are these: BALB/c, mouse, po, 5 mg/kg.
Description: Oral bioavailability in BALB/c mouse at 5 mg/kg measured upto 24 hrs by LC-MS/MS analysis
The nature of data set [8]: Clearance in BALB/c mouse at 1 mg/kg, iv measured upto 24 hrs by LC-MS/MS analysis. The conditions noted are these: in vivo.
Data set [9] in a line: Apparent volume of distribution in BALB/c mouse at 1 mg/kg, iv measured upto 24 hrs by LC-MS/MS analysis. The conditions noted are these: in vivo.
For data set [10], the target named is T3, Prostaglandin E2 receptor EP3 subtype (Homo sapiens, UniProt P43115).
T3 sequence (P43115 whole entry): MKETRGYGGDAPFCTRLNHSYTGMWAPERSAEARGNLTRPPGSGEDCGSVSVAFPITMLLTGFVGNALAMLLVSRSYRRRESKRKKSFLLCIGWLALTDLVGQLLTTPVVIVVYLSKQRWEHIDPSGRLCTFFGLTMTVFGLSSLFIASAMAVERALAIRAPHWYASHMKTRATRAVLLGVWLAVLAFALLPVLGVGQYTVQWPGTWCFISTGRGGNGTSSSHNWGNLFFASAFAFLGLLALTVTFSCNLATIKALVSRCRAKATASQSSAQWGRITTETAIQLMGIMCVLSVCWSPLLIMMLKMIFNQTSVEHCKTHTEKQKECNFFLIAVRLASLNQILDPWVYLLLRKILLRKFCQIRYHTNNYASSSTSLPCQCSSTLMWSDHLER
Description: Antagonist activity at human EP3 expressed in CHO cells coexpressing G16-alpha assessed as intracellular calcium flux preincubated for 15 mins followed by addition of PGE2 by calcium flux assay

Data set [11] has as its target Prostaglandin E2 receptor EP2 subtype (Homo sapiens, UniProt P43116).
Description: Antagonist activity at human EP2 expressed in CHO cells coexpressing G16-alpha assessed as intracellular calcium flux preincubated for 15 mins followed by addition of PGE2 by calcium flux assay
Data set [12] is described as follows: Volume of distribution at steady state in BALB/c mouse at 1 mg/kg, iv measured upto 24 hrs by LC-MS/MS analysis. The conditions noted are these: in vivo.
Data set [13] is described as follows: in vivo. The conditions noted are these: BALB/c, mouse, iv, 1 mg/kg. The source holds these as a separate data set.
A short description of data set [14]: Metabolic stability in CD1 mouse liver microsomes assessed as compound remaining at 10 uM incubated for 1 hr.
Data set [15] can be described thus: in vivo. The conditions noted are these: BALB/c, mouse, po, 5 mg/kg. This is another data set of the same source.
Description: AUC (0 to infinity) in BALB/c mouse at 5 mg/kg, po measured upto 24 hrs by LC-MS/MS analysis
The nature of data set [16]: Metabolic stability in human liver microsomes assessed as compound remaining at 10 uM incubated for 1 hr.
Data set [17] in a line: Half life in BALB/c mouse at 1 mg/kg, iv measured upto 24 hrs by LC-MS/MS analysis. The conditions noted are these: in vivo.
Data set [18] is described as follows: in vivo. The conditions noted are these: BALB/c, mouse, po, 5 mg/kg. This is another data set of the same source.
Description: Cmax in BALB/c mouse at 5 mg/kg, po measured upto 24 hrs by LC-MS/MS analysis
Data set [19] can be described thus: Half life in BALB/c mouse at 5 mg/kg, po measured upto 24 hrs by LC-MS/MS analysis. The conditions noted are these: in vivo.
The target of data set [20] is Prostaglandin E2 receptor EP4 subtype (Homo sapiens, UniProt P35408).
Chain of Prostaglandin E2 receptor EP4 subtype (Homo sapiens, UniProt P35408) (P35408 whole entry): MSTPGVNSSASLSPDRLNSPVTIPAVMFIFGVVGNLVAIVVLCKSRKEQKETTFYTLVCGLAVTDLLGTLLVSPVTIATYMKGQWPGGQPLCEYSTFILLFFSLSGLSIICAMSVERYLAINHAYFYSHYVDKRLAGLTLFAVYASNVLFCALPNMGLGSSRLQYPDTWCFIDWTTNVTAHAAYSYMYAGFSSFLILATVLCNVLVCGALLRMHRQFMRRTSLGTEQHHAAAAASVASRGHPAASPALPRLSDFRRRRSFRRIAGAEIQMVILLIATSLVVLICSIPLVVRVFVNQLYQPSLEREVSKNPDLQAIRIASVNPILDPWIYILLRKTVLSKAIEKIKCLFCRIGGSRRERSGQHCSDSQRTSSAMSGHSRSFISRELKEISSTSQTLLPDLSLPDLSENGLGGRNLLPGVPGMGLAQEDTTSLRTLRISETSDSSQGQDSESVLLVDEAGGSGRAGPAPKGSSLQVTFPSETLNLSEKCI
Description: Antagonist activity at human EP4 expressed in CHO cells coexpressing G16-alpha assessed as intracellular calcium flux preincubated for 15 mins followed by addition of PGE2 by calcium flux assay
Data set [21] has as its target T4, Prostaglandin E2 receptor EP1 subtype (Homo sapiens, UniProt P34995).
T4 sequence (P34995 whole entry): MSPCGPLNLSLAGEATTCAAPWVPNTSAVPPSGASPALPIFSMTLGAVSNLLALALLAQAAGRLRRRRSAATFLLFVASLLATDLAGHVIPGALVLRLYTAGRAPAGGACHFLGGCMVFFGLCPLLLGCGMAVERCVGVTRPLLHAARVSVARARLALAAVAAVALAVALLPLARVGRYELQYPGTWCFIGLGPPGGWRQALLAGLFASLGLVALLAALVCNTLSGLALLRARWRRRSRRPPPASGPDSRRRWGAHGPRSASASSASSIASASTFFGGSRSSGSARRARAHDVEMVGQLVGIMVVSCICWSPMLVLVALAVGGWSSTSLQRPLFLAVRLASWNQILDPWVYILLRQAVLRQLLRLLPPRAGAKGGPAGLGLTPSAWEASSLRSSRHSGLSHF
The experiment in a line: Antagonist activity at human EP1 expressed in CHO cells coexpressing G16-alpha assessed as intracellular calcium flux preincubated for 15 mins followed by addition of PGE2 by calcium flux assay. It counts as functional, cell-based.

By IC50 is commonly meant the concentration that inhibits the measured activity by half. For orientation: inhibition means the drop in the measured response relative to a control, in per cent. A high value points to a strong effect. The half-life is the time needed for the level to fall by half in the phase considered. High values mean slow decline, low ones rapid decline. The microsomal CLint is the capacity of the preparation to metabolise the compound, expressed as a volume cleared per time. By Cmax is commonly meant the highest concentration seen after dosing. A word on the bioavailability: it is dose-corrected exposure relative to a reference, in per cent. One may read the clearance as the rate of elimination divided by the concentration. Low readings indicate a low capacity for elimination, high ones a high capacity for elimination. Broadly, the AUC(0-inf) is the area under the concentration-time curve extrapolated to infinity.

Chain of CYP2E1 (P05181 whole entry): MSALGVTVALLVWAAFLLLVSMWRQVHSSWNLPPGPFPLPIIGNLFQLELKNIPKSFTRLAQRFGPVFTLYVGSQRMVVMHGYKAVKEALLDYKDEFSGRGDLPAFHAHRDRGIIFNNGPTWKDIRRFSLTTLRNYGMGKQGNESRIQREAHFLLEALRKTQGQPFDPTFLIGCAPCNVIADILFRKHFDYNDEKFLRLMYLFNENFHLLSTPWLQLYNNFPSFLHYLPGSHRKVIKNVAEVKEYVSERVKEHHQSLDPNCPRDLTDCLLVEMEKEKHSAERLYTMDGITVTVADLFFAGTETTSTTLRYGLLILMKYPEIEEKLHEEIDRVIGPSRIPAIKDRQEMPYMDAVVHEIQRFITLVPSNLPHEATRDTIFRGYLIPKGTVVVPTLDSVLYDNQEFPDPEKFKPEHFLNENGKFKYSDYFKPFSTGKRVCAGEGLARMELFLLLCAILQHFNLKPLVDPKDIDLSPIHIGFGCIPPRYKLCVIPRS
Chain of Prostaglandin E2 receptor EP4 subtype (Mus musculus, UniProt P32240) (P32240 whole entry): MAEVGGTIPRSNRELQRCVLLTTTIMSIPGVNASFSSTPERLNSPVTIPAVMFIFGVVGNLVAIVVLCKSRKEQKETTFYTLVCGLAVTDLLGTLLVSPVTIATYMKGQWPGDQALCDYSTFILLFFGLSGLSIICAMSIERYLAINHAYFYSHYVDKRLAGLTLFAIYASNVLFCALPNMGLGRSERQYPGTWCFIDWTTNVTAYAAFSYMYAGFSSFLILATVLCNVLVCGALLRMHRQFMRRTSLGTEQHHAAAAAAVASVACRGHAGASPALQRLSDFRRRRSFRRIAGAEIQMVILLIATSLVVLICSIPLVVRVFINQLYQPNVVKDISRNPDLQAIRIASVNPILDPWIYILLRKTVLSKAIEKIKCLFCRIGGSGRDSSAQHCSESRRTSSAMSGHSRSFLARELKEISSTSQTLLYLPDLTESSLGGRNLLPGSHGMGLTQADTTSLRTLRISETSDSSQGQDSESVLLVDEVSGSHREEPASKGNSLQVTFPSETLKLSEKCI
Chain of Prostaglandin E2 receptor EP2 subtype (P43116 whole entry): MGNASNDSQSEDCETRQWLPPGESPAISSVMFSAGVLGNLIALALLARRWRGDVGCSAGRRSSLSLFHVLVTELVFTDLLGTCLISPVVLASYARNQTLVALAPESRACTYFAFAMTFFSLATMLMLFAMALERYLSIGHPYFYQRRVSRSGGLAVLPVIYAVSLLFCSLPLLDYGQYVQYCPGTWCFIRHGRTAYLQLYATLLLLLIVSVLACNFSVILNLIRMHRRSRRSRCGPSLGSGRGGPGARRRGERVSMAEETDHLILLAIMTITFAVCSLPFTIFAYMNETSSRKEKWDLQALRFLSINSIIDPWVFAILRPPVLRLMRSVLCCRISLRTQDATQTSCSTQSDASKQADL

On to `C[C@H](NC(=O)c1c(C(F)F)nn(C)c1Oc1cccc(C(F)(F)F)c1)c1ccc(C(=O)O)cc1` [PALUPIPRANT], for which, in data set [1], the IC50 worked out at 181 nM. Further, in the data set with CT26, the inhibition in vivo at 150 mg/kg came out at 43.2%. Moreover, the inhibition at 1 h, 20 µM at CYP2C9 was 67%; at CYP2E1 it was 79%; on CYP2B6, 23%; on CYP2D6 it was 35%. Besides, the inhibition at 0.5 h, 20 µM against CYP1A2 stood at 41%. The “inhibition (INH)” value at Cytochrome P450 3A4 is given as “Not Active”.
As for `C[C@]12CC[C@H]3[C@@H](CCC4=CC(=O)CC[C@@]43C)[C@@H]1CC[C@@H]2O` [TESTOSTERONE], the half-life at 1 h, 10 µM in the data set “in vitro [2]” came to 2.9 min; in the data set “in vitro [5]”, 19.4 min. Further, the intrinsic metabolic clearance (microsomal CLint) at 1 h, 10 µM is 479 µL/min/mg in “in vitro [3]” and 71.3 µL/min/mg in the data set “in vitro [4]”.
As for `O=C(O)Cc1ccccc1Nc1c(Cl)cccc1Cl` [DICLOFENAC], the half-life at 1 h, 10 µM came to 53.6 min in the data set “in vitro [2]” and 10.6 min in “in vitro [5]”. In addition, the microsomal CLint at 1 h, 10 µM in the data set “in vitro [3]” is 25.8 µL/min/mg; in the data set “in vitro [4]”, 131 µL/min/mg.
Take `C[C@H](NC(=O)c1c(-c2ccsc2)nnn1Cc1ccc(C(F)(F)F)cc1)c1ccc(C(=O)O)cc1`: the results for the Cmax at 24 h in “in vivo [6]” and in the data set “in vivo [18]” were 808 ng/mL and 365 ng/mL, respectively. This molecule also showed a bioavailability at 24 h in “in vivo [7]” of 40.9%. Moreover, the clearance at 24 h in data set [8] was 50 mL/min/kg. The results for the Vd at 24 h in [9] and in data set [12] were 14.5 L/kg and 4 L/kg, respectively. The 50% inhibitory concentration (IC50) in data set [1] was 27.5 nM; in [10], more than 10000 nM; in data set [11], more than 10000 nM; in data set [20], 12.9 nM; in data set [21], more than 10000 nM. Further, the half-life at 1 h, 10 µM in the data set “in vitro [2]” and in the data set “in vitro [5]” was more than 145 min each time. Also, the inhibition at 1 h, 20 µM against CYP2C9 turned out to be 48%; against CYP2E1, 63%; at CYP2B6, 28%; against CYP2D6 it was 25%. Besides, the microsomal CLint at 1 h, 10 µM in “in vitro [3]” and in the data set “in vitro [4]” was less than 9.6 µL/min/mg each time. At CYP1A2, this molecule yielded an inhibition at 0.5 h, 20 µM of 21%. The AUC(0-inf) at 24 h in “in vivo [13]” is 332 ng·h/mL; in “in vivo [15]” it was 654 ng·h/mL. In addition, the values for the fraction remaining at 1 h, 10 µM in data set [14] and in [16] were 75.5% and 106%, respectively. Also, the half-life at 24 h is 198 min in data set [17] and 276 min in [19]. Further, the “inhibition (INH)” value on Cytochrome P450 3A4 is on record as “Not Active”.
